The values below come from patent US8008491B2, “Substituted AZA-indoles as inhibitors of poly(ADP-ribose) polymerase (PARP)” (Aventis Pharmaceuticals, Inc., priority 2003, dated 2011).

Structures are written as SMILES. pEC50, pIC50: −log10 of the molar value.

Data set [1] concerns the target T1, human PARP (PARP1) (Homo sapiens, UniProt P09874). Briefly: Radioactivity enzyme assay: incorporation of labeled NAD into acid-precipitated protein. The class given is biochemical. To be noted: reference compounds, NAD 200 μm.
Source text: Full length human PARP (PARP1) is assembled from PCR fragments of a clone from a human brain cDNA library and two Incyte clones. The PARP gene (3046 bp) is sub-cloned into pFastBac-HTb vector to give PARP-pFastBac-HTh and the sequence of this clone is verified. PARP-pFastBac-HTb is expressed to obtain protein using the Bac-to-Bac expression protocol from Gibco-BRL. The recombinant virus generated is used to scale up the material for purification.
Cell pellets from cell broth of cells expressing PARP are treated with a cocktail of protease inhibitors and lysed by 4 freeze-thaw cycles. The material is suspended in 10 mM HEPES/0.1M NaCl/pH 7.2, stirred, and then centrifuged. A 40%-70% ammonium sulfate cut of protein pellet is obtained from the supernatant. The pellet is solubilized in 10 mM HEPES/pH 7.2 and centrifuged. The supernatant buffer is exchanged to 10 mM HEPES/pH 7.2/0.1M NaCl/25% glycerol by dialysis or with a desalting column. The enzyme preparation is stored at −20° C. until use.
Incorporation of radioactivity from labeled NAD into acid-precipitated protein is measured. […] After washing with TCA and ethanol, the filter is dried and counted for tritium CPM after addition of scintillation fluid.
The next data set concerns Male Sprague-Dawley rats. Description: Myocardial ischemia model: coronary artery occlusion and reperfusion, infarct size. The class given is in vivo, rat. Conditions: 20 min occlusion, 60 min reperfusion. An excerpt:
Male Sprague-Dawley rats are anesthetized and the chest is opened. A thin silk thread is placed around the left anterior descending coronary artery. The silk is passed through a plastic tube and the chest is closed. After stable hemodynamics, the coronary artery is occluded by applying tension to the thread via the tube. Successful occlusion is confirmed by a decrease in systolic blood pressure and alterations in ECG. Reperfusion is initiated by releasing the tension on the ligature.
For testing efficacy of Example 3 in this animal model, animals are divided into three groups. One group received the compound of Example 3 at 10 mg/kg i.v. 10 min prior to occlusion. A second group received compound of Example 3 at the same dose 5 min prior to reperfusion. The third group served as vehicle control. The period of occlusion is 20 min, followed by reperfusion for 60 min. After sacrifice infarct size is measured by staining of heart tissue slices with triphenyltetrazolium chloride and expressed as a percent (%) of area at risk.
A similar study is carried out with cariporide, a reference standard.

Data set [2] addresses T1, human PARP (PARP1). Description: PARP enzyme assay of Table 3 (radioactive enzyme assay or 'ELISA' enzyme assay).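 Further: Baculovirus-expressed PARP1 from insect cells, activity read as tritium from labeled NAD in acid-precipitated protein, or as biotin-NAD built into plate-bound histone by absorbance at 450 nm.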 Conditions: IC50 (μM), fifty percent inhibitory concentration; recombinant human PARP. (In general: In an ELISA, binding on a coated surface is turned into a signal by an enzyme label.)
Procedure: The compounds of this invention are then tested with this enzyme preparation using either the radioactive enzyme assay or by the “ELISA” enzyme assay as set forth below.
Incorporation of radioactivity from labeled NAD into acid-precipitated protein is measured. The reaction mixture (volume 100 μL or 50 μL, in a test-tube or 96-well plate) contained 100 μg/mL calf thymus DNA (sonicated), 100 μg/mL histones, 100 mM Tris (pH 8.0), 1.0 mM DTT, 10 mM MgCl2, NAD (200 μm, 0.65 microcurie/mL), and varying amounts of enzyme. The reaction was incubated for 10 min at 37° C. or at room temperature for 60 min. The reaction was stopped and protein precipitated by addition of ice-cold trichloroacetic acid (TCA; 10% or 20% aqueous w/v). After brief storage in ice or at 4° C. for 2 hrs, the reaction mixture is filtered under vacuum through a glass fiber filter (2.5 cm disc, or 96-well filter plate). After washing with TCA and ethanol, the filter is dried and counted for tritium CPM after addition of scintillation fluid.
Incorporation of biotin-NAD into histone coated on plate is measured. A 96-well protein-binding EIA plate is coated with histone and blocked with bovine serum albumin. The reaction mixture (50 μL) contained DNA, buffer, enzyme, (test compound), and 250 μM of NAD and 5 μL of biotin-NAD (Trevigen). After reaction at room temperature the wells are washed and treated with Extravidin (Sigma). After incubation and washing color is developed with the peroxidase substrate TMB (Sigma). The TMB reaction is quenched with 2M sulfurric acid and the absorbance at 450 nm is read.
A further data set has as its system Male Fisher 344 rats. Description: Stroke model: middle cerebral artery (MCA) occlusion, infarct volume. The class given is in vivo, rat. Conditions: total dose 40 mg/kg i.v. (10 mg/kg bolus plus 5 mg/kg/hr for 6 hrs) 15 min after MCA occlusion; 48 hours post-occlusion. The method, then:
Male Fisher 344 rats are anesthetized. The right carotid artery is isolated and ligated, and the right jugular vein is canulated for compound administration. The middle cerebral artery (MCA) was exposed through a craniotomy, and the MCA and its right branch, the lenticulostriate artery are electrocoagulated. The arteries are cut to avoid recanalization. […] The compounds are given as a 10 mg/kg bolus followed by an infusion of 5 mg/kg/hr for 6 hrs (total dose 40 mg/kg).
48 Hours post-MCA occlusion the rats are sacrificed, and the brains removed and cut into 2-mm coronal sections.
A total dose of 40 mg/kg of 2-(piperazin-1-yl)-1-phenyl-1H-indole-3-carboxaldehyde (Example 3) is given as bolus plus infusion as described above.

Data set [3] deals with HL-60 (human leukemia) cells. Description: Cell-based assay: protection from cell death induced by serum deprivation (Alamar Blue). To be noted: median effective concentration preventing cell death, HL-60, 0.1% FCS, 24 hr. The method, then:
HL-60 (human leukemia) cells are grown and maintained using standard procedures in RPMI 1640+Glutamax medium supplemented with 10% fetal calf serum (FCS). For assay, cells are suspended in medium supplemented with 0.1% FCS at 0.5 million cells/mL and seeded into 96 well plates (100 μL/well). After preincubation for 3 hrs, cells are treated with compound for 1 hr, then Alamar Blue (Serotec) is added to the cells. After a further 24 hr incubation, fluorescence is measured (ex 560 nm, em 590 nm). Decrease in fluorescence compared to control cells (10 μM of a potent PARP inhibitor) is a measure of cell death. Increased fluorescence in the presence of test compound indicates protection from cell death induced by serum deprivation. For detection of polyADP-ribosylation, cells are subjected to serum deprivation in the presence and absence of compound. Cells are lysed and proteins are run on an SDS-PAGE gel. PolyADP-ribosylated proteins are detected with antibody to polyADP-ribose (Alexis or Calbiochem).
The results obtained from this study are expressed as EC50 (median effective concentration of the test compound that was effective in preventing the cell death—expressed in micromolar (μM) concentration) for each of the tested compounds and are summarized in Table 4.
(In general: The colour change of resazurin is a common sign of viable cells or microbes.)

T1 sequence (P09874 whole entry, the tested form may be a part): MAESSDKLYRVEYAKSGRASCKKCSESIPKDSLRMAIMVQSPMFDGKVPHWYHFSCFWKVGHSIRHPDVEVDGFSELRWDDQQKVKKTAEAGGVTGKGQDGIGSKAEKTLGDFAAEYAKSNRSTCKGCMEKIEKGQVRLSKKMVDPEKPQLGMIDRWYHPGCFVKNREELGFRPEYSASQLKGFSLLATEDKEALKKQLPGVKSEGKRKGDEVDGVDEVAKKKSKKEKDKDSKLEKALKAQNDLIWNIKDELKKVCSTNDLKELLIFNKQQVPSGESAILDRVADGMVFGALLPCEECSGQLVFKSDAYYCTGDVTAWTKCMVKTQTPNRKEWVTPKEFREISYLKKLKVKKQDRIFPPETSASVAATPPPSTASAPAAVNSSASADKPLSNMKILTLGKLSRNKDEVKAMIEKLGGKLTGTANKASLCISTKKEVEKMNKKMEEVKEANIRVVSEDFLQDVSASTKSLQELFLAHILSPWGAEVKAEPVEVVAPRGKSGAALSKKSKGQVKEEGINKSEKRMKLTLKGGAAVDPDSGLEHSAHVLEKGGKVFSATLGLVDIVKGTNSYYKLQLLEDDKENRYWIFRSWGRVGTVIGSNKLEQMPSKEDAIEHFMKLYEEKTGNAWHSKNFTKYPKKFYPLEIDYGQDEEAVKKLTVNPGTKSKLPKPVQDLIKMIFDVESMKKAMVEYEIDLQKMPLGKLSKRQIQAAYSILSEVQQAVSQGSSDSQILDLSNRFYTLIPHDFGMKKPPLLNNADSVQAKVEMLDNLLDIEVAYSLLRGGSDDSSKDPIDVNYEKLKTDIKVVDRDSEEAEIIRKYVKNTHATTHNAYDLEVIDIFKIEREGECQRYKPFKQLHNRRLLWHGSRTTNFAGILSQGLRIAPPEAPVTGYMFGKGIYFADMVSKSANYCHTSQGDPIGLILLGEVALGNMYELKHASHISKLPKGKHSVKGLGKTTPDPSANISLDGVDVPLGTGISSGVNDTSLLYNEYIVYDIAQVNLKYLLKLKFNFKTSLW

Compound `O=Cc1c(N2CCNCC2)n(Cc2ccccc2)c2ccccc12` came in with a melting point of 163 to 165 °C.
On to `Oc1cccc2c(O)nccc12` [1,5-isoquinolinediol], for which, at human PARP (PARP1) [1], the negative-log IC50 (pIC50) was 6.00.
On to `O=Cc1c(N2CCNCC2)n(-c2ccccc2)c2ccccc12` [Example 3, 2-(Piperazin-1-yl)-1-phenyl-1H-indole-3-carboxaldehyde], for which, in the data set with Male Sprague-Dawley rats (10 mg/kg i.v. 5 min prior to reperfusion (Example 3)), the “infarct size (% of area at risk), effect when given prior to reperfusion” value was “small but significant effect”. Also, in the data set on Male Sprague-Dawley rats (10 mg/kg i.v. 10 min prior to occlusion (Example 3)), the “infarct size (% of area at risk), effect when given prior to ischemia” value is listed as “significant protection”. For the same compound, the IC50 at human PARP (PARP1) [2] was determined as 2.5 µM. The “reduction in infarct volume” value in the data set with Male Fisher 344 rats was 40-50%. The compound also had a pEC50 in data set [3] of 5.72.
For `O=Cc1c(N2CCNCC2)n(-c2ccsc2)c2ccccc12` [Example 12, 2-(Piperazin-1-yl)-1-(thien-3-yl)-1H-indole-3-carboxaldehyde], the IC50 on human PARP (PARP1) [2] stood at 2 µM. The compound also gave a negative-log EC50 (pEC50) in data set [3] of 5.52.

In general, melting point refers to the temperature of the solid-liquid transition. A word on the pIC50: it is the negative decadic logarithm of the IC50, by convention in mol/L. As usually defined, the IC50 is the midpoint of a concentration-inhibition curve. The term pEC50 denotes the negative decadic logarithm of the EC50, by convention in mol/L. Low readings indicate a high EC50, high ones a low EC50.
